Measured values: PubChem BioAssay (NCI)
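Method: 48-hour compound exposure of cells in 96-well plates, five concentrations, linear interpolation of endpoints. GI50 marks 50% less growth. TGI: total growth inhibition.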

What was measured:
Test in all cases: NCI tumour cell line growth inhibition, 48 h
SNB-75 CNS = tested on: SNB-75 CNS
SK-MEL-28 melanoma = tested on: SK-MEL-28 melanoma
COLO 205 colon = tested on: COLO 205 colon
PC-3 prostate = tested on: PC-3 prostate
SF-295 CNS = tested on: SF-295 CNS
RXF 393 renal = tested on: RXF 393 renal
SF-539 CNS = tested on: SF-539 CNS
SF-268 CNS = tested on: SF-268 CNS
SK-MEL-5 melanoma = tested on: SK-MEL-5 melanoma
KM12 colon = tested on: KM12 colon
BT-549 breast = tested on: BT-549 breast
SK-OV-3 ovarian = tested on: SK-OV-3 ovarian
A549 NSCLC = tested on: A549 NSCLC
SW-620 colon = tested on: SW-620 colon
SK-MEL-2 melanoma = tested on: SK-MEL-2 melanoma
NCI-H226 lung = tested on: NCI-H226 lung
SN12C renal = tested on: SN12C renal
HL-60(TB) leukemia = tested on: HL-60(TB) leukemia
MOLT-4 leukemia = tested on: MOLT-4 leukemia
A498 renal = tested on: A498 renal
K-562 leukemia = tested on: K-562 leukemia
UACC-62 melanoma = tested on: UACC-62 melanoma
U251 CNS = tested on: U251 CNS
CCRF-CEM leukemia = tested on: CCRF-CEM leukemia
SR leukemia = tested on: SR leukemia
SNB-19 CNS = tested on: SNB-19 CNS
MDA-MB-231 breast = tested on: MDA-MB-231 breast
CAKI-1 renal = tested on: CAKI-1 renal
NCI-H460 lung = tested on: NCI-H460 lung
EKVX NSCLC = tested on: EKVX NSCLC

Work on CCOP(=O)(CC(F)(F)C(F)(F)F)OCC yielded a GI50 (SNB-75 CNS) of 1.95 µM, a TGI (SNB-75 CNS) of 36.7 µM and a GI50 (SK-MEL-28 melanoma) of 1.82 µM. For the same compound, the TGI (SK-MEL-28 melanoma) was 3.85 µM, the GI50 (COLO 205 colon) was 1.84 µM and the TGI (COLO 205 colon) was 3.43 µM. For the same compound, the GI50 (PC-3 prostate) was 4.6 µM, the TGI (PC-3 prostate) was 25.6 µM and the GI50 (SF-295 CNS) was 15.6 µM. The TGI (SF-295 CNS) was 33.2 µM, the GI50 (RXF 393 renal) was 1.06 µM and the TGI (RXF 393 renal) was 2.37 µM. For the same compound, the GI50 (SF-539 CNS) was 2.02 µM, the TGI (SF-539 CNS) was 4.75 µM and the GI50 (SF-268 CNS) was 17.9 µM. The TGI (SF-268 CNS) was 54.4 µM, the GI50 (SK-MEL-5 melanoma) was 3.38 µM and the TGI (SK-MEL-5 melanoma) was 13.7 µM. The GI50 (KM12 colon) was 17.2 µM, the TGI (KM12 colon) was 33.6 µM and the GI50 (BT-549 breast) was 4.17 µM. It also gave a TGI (BT-549 breast) of 20.5 µM, a GI50 (SK-OV-3 ovarian) of 27.4 µM and a TGI (SK-OV-3 ovarian) of 74.8 µM. The GI50 (A549 NSCLC) was 30.7 µM, the TGI (A549 NSCLC) was over 100 µM and the GI50 (SW-620 colon) was 1.83 µM. The TGI (SW-620 colon) was 3.92 µM, the GI50 (SK-MEL-2 melanoma) was 17.3 µM and the TGI (SK-MEL-2 melanoma) was 39.2 µM. For the same compound, the GI50 (NCI-H226 lung) was 16.5 µM, the TGI (NCI-H226 lung) was 58.2 µM and the GI50 (SN12C renal) was 16.6 µM. For the same compound, the TGI (SN12C renal) was 42.2 µM, the GI50 (HL-60(TB) leukemia) was 1.71 µM and the TGI (HL-60(TB) leukemia) was 5.89 µM. The GI50 (MOLT-4 leukemia) was 1.92 µM, the TGI (MOLT-4 leukemia) was 10.3 µM and the GI50 (A498 renal) was 19.7 µM. It also gave a TGI (A498 renal) of 37 µM, a GI50 (K-562 leukemia) of 2.62 µM and a TGI (K-562 leukemia) of 17.9 µM. The GI50 (UACC-62 melanoma) was 2.35 µM, the TGI (UACC-62 melanoma) was 8.87 µM and the GI50 (U251 CNS) was 20.7 µM. The TGI (U251 CNS) was 60.2 µM, the GI50 (CCRF-CEM leukemia) was 2.9 µM and the TGI (CCRF-CEM leukemia) was 15.8 µM. The GI50 (SR leukemia) was 2.4 µM, the TGI (SR leukemia) was 11.5 µM and the GI50 (SNB-19 CNS) was 26.2 µM. The TGI (SNB-19 CNS) was over 100 µM, the GI50 (MDA-MB-231 breast) was 3.43 µM and the TGI (MDA-MB-231 breast) was 12.3 µM. For the same compound, the GI50 (CAKI-1 renal) was 3.06 µM, the TGI (CAKI-1 renal) was 10.6 µM and the GI50 (NCI-H460 lung) was 17 µM. The TGI (NCI-H460 lung) was 37.5 µM and the GI50 (EKVX NSCLC) was 3.17 µM.
